Data: US11638424B2, “Mosquito attractant formulations and uses thereof” (priority 2017, dated 2023)

Columns and labels:
human Vγ9Vδ2 T-cells = conditions: cited from earlier work
A. gambiae sensu lato [1] = experiment: Persistency (landing, probing and initiating feeding) within 5 min on cell-free meals; assay type: in vivo
Protocol: (§1) Fifty mosquitoes were isolated in three separate cages (8 cm internal diameter×10 cm in height) covered with netting, and fed on 1 ml of control RBCs, hRBCs or giRBCs, respectively. […] For each group, the number of fully fed mosquitoes compared to unfed controls was immediately recorded. In another set of feeding experiments, serum or a 0.9% physiological saline solution (NaCl, pH 7.4), either with or without 10 μM HMBPP, were offered to mosquitoes during a 5 min feeding window, and the number of fed mosquitoes recorded every minute for each cage separately. In the saline experiment, an additional treatment of 10 μM IPP in NaCl was included.

A. gambiae s.l. = experiment: Olfactometer bioassay (larger Y-tube olfactometer / wind tunnel assay); assay type: in vivo; conditions: larger Y-tube olfactometer, FIG. 2A
Protocol: Behavioural experiments were performed using different odour sources with and without pulsed CO2 stimuli in a Plexiglas Y shaped olfactometer (9.5 cm i.d.×length of the central cylinder and two arms: 120/120/120 cm respectively), illuminated from above at 280 lx. A charcoal-filtered and humidified air stream (25±2° C., RH 65±2%) passed through stainless steel mesh screens at 30 cm s^−1 to generate a laminar flow in the olfactometer. Odors were introduced into the air stream of each arm at the downwind end. […] Odor sources consisted of either RBC-based treatments or headspace extracts. RBC-based treatments included RBCs alone, hRBCs, giRBCs or ippRBCs (RBCs supplemented with HMBPP, gametocytes or IPP), as well as RBCs with supernatants from gametocyte-infected RBCs, or RBCs supplemented with the synthetic odour blend. Headspace extracts collected from hRBCs and giRBCs were used. Treatments including RBCs were heated to 37° C. prior to being pumped (150 ml min^−1) into the airstream of each arm separately. The blend and headspace extracts were delivered to each arm via a wick dispenser. Carbon dioxide (Strandmöllen) was introduced into a plume generator that was placed behind the metal screens to create a homogenous-pulsed flow, which was regulated by a stimulus controller (SEC-2/b, Syntech, Löptin Germany). […]

A. gambiae sensu lato [2] = experiment: Mosquito fitness after blood feeding (blood meal size, fecundity, survival); assay type: in vivo; conditions: hRBCs vs RBCs
Protocol: Mosquitoes used in this study were from the laboratory colony of A. gambiae sensu lato (Keele line, University of Glasgow), which was produced by balanced interbreeding of four A. gambiae s.s. strains (H. Hurd, et al. Evolution, 59, 2560-2572 (2005)). Larvae were reared under standard insectary conditions (27±1° C., 70% humidity, 12 h light: 12 h dark cycle) and fed on TetraMin fish flakes (Tetra ltd., Germany). Pupae were transferred into holding cages for emergence. Emerged adults were fed ad libitum on 5% glucose solution, supplemented with 0.05% (w/v) 4-aminobenzoic acid (PABA, Sigma-Aldrich), through soaked filters on top of the 2 ml tubes and with soaked filter pads inside cages. Red blood cells (RBCs) were washed with Roswell Park Memorial Institute (RPMI) medium and stored in RPMI at 50% haematocrit at 4° C. until use. To measure the effect of HMBPP on mosquito fitness, RBCs stored in RPMI were centrifuged at 2500×g for 5 min followed by replacement of the medium with AB serum for a final haematocrit of 40%. HMBPP (stock concentration at 4 mM in Nanopure water, stored at −80° C.) was diluted to 10 μM in 1 ml RBC suspension, and the corresponding volume of Nanopure water was added to the control RBCs. All experiments were, unless otherwise stated, conducted on 5-7 days post-emergence female mosquitoes maintained in separated cages (approximately 210 individuals per cohort) and fed RBCs either with or without HMBPP for 30 min. All experiments were performed in triplicates.
GLMM statistical modelling was used to corroborate the validity of results based on the whole data set by including the effect of replications (experimental blocks), including weighting for multiple replications. In all analyses, the effect of the main experimental effects (e.g. treatment) was investigated while controlling for variation in experimental replication (random variable). For all results, the significance of all explanatory effects were evaluated by using likelihood ratio test (LRT). Analyses were performed using R statistical software. […]

A. gambiae sensu lato [3] = experiment: Feeding proportion experiments (90 s on membrane feeder); assay type: in vivo
Protocol: Mosquitoes used in this study were from the laboratory colony of A. gambiae sensu lato (Keele line, University of Glasgow), which was produced by balanced interbreeding of four A. gambiae s.s. strains (H. Hurd, et al. Evolution, 59, 2560-2572 (2005)). Larvae were reared under standard insectary conditions (27±1° C., 70% humidity, 12 h light: 12 h dark cycle) and fed on TetraMin fish flakes (Tetra ltd., Germany). Pupae were transferred into holding cages for emergence. Emerged adults were fed ad libitum on 5% glucose solution, supplemented with 0.05% (w/v) 4-aminobenzoic acid (PABA, Sigma-Aldrich), through soaked filters on top of the 2 ml tubes and with soaked filter pads inside cages. Red blood cells (RBCs) were washed with Roswell Park Memorial Institute (RPMI) medium and stored in RPMI at 50% haematocrit at 4° C. until use. […]
as §1, with “In the saline experiment, an additional treatment of 10 μM IPP in NaCl was included.” left out

C/C(=C\COP(=O)(O)OP(=O)(O)O)CO [HMBPP, (E)-4-hydroxy-3-methyl-but-2-enyl pyrophosphate]
activation of human Vγ9Vδ2 T-cells (human Vγ9Vδ2 T-cells): highly potent activator | persistency / phagostimulatory effect in physiological salt solution (A. gambiae sensu lato [1]; 0.9% NaCl, 10 μM, 5 min, FIG. 1F): generated a similar effect | percent persistency within 5 min (females that landed and initiated probing and feeding) (A. gambiae sensu lato [1]; serum with 10 μM HMBPP (serum alone 20%), FIG. 1E): Approximately 80% | attraction of mosquitoes to supplemented RBCs versus RBCs (A. gambiae s.l.): could mimic the attraction of mosquitoes to giRBCs | mosquito fecundity (A. gambiae sensu lato [2]; FIG. 3A): Neither mosquito fecundity, nor survival was affected | mosquito survival (A. gambiae sensu lato [2]; FIG. 3B): Neither mosquito fecundity, nor survival was affected | size of mosquito blood meals (A. gambiae sensu lato [2]; FIG. 3C): significantly increased | proportion of mosquitoes feeding over a range of HMBPP concentrations (A. gambiae sensu lato [3]; RBCs supplemented with different concentrations of HMBPP, below 10 μM): substantially lower doses are sufficient to trigger enhanced mosquito feeding | proportion of females fed (A. gambiae sensu lato [3]; hRBCs (10 μM HMBPP) vs RBCs, 90 s feeding, FIG. 1B): more than doubled
